This note sets out measurements from patent publication US4419123A, “Herbicidal 4-trifluoromethyl-3'-carbon-substituted-4'-substituted diphenyl ethers” (Rohm and Haas Company, priority 1981, dated 1983).

For data set [1], the system named is rice. Nature of the data set: Crop tolerance (selective herbicidal activity), rice. The class given is in vivo. As for the experimental part:
(§1) The following test procedure is employed.
(§2) Following the general test procedure of Example 37, diphenyl ethers are evaluated for significant tolerance (as shown by 50% or less kill of the test crop at levels of application which give more than 50% kill of many or all of the weeds of Example 73) towards some or all of the following common agronomic crops (not all compounds tested against all crops): alfalfa, snapbeans, corn, cotton, cucumbers, peanuts, rape, rice, safflower, soybeans, tomatoes, and wheat.

Data set [2] deals with peanuts. The data set is described as follows: Crop tolerance (selective herbicidal activity), peanuts. The class given is in vivo. Here is the method: as §1, §2
Data set [3] relates to corn. The data set is described as follows: Crop tolerance (selective herbicidal activity), corn. The class given is in vivo. Here is the method:
as §1, §2

The nature of data set [4]: Postemergence herbicidal activity (% control) against dicot weeds. To be noted: post-emergence, 336 h; for activity at 2241.7 g/ha: read-out: Herbicidal activity (% control), postemergence, dicots, 2 lb./A., average, about two weeks after application; for activity at 4483.4 g/ha: read-out: Herbicidal activity (% control), postemergence, dicots, 4 lb./A., average, about two weeks after application.

Data set [5] deals with wheat. Nature of the data set: Crop tolerance (selective herbicidal activity), wheat. The class given is in vivo. As for the experimental part:
as §1, §2

Data set [6] is described as follows: Postemergence herbicidal activity (% control) against monocot weeds. It is filed as in vivo. The conditions noted are these: post-emergence, 336 h, average, about two weeks after application, read-out: Herbicidal activity (% control), postemergence, monocots; for activity at 2241.7 g/ha: 2 lb./A.; for activity at 4483.4 g/ha: 4 lb./A.
Text: (§3) barnyardgrass (Echinochloa crusgalli) crabgrass (Digitaria spp.) nutsedge (Cyperus esculentus)
(§4) At 2 and 4 pounds per acre:
(§5) **Bermudagrass (Cynodon dactylon)
(§6) *downy brome (Bromus tectorum) foxtail (Setaria faberii)
(§7) Johnsongrass (Sorghum halepense) […]
(§8) quackgrass (Agropyron repens)
(§9) *ryegrass (Lolium perenne)
(§10) *wild oats (Avena factua)
(§11) *yellow millet (Panicum miliaceum)
as §1

Data set [7] concerns soybeans. Nature of the data set: Crop tolerance (selective herbicidal activity), soybeans. It is filed as in vivo. Here is the method:
as §1, §2

Data set [8] in a line: Preemergence herbicidal activity (% control) against dicot weeds. The conditions noted are these: pre-emergence, 336 h; for activity at 2241.7 g/ha: read-out: Herbicidal activity (% control), preemergence, dicots, 2 lb./A., average, about two weeks after application; for activity at 4483.4 g/ha: read-out: Herbicidal activity (% control), preemergence, dicots, 4 lb./A., average, about two weeks after application.

Data set [9] in a line: Preemergence herbicidal activity (% control) against monocot weeds. The conditions noted are these: pre-emergence, 336 h, average, about two weeks after application, read-out: Herbicidal activity (% control), preemergence, monocots; for activity at 2241.7 g/ha: 2 lb./A.; for activity at 4483.4 g/ha: 4 lb./A. It is filed as in vivo.
Text: as §3, §4, §5, §6, §7, §8, §9, §10, §11, §1

Where [10] appears, read: postemergence applications or applications on transplanted rice.

`CCN(CC)c1cc(Oc2ccc(C(F)(F)F)cc2Cl)ccc1[N+](=O)[O-]` [Example 21, 2-Chloro-α,α,α-trifluoro-p-tolyl-3-diethylamino-4-nitrophenyl ether]: the Tolerance to rice entry in data set [1] (preemergence applications) is given as “Tolerance (significant tolerance (as shown by 50% or less kill of the test crop at levels of application which give more than 50% kill of many or all of the weeds of Example 73))”. Besides, the Tolerance to peanuts entry in [2] (preemergence applications) was “Tolerance (significant tolerance (as shown by 50% or less kill of the test crop at levels of application which give more than 50% kill of many or all of the weeds of Example 73))”. The Tolerance to corn result in data set [3] (postemergence applications) and in [3] (preemergence applications) was “Tolerance (significant tolerance (as shown by 50% or less kill of the test crop at levels of application which give more than 50% kill of many or all of the weeds of Example 73))” in each case. Further, the activity at 2241.7 g/ha in [4] came out at 94%; in data set [6], 90%; in [8], 90%; in data set [9], 79%. For the same compound, the activity at 4483.4 g/ha was 96% in data set [4], 74% in data set [6], 99% in [8] and 91% in data set [9]. Also, the Tolerance to wheat entry in data set [5] (postemergence applications) is “Tolerance (significant tolerance (as shown by 50% or less kill of the test crop at levels of application which give more than 50% kill of many or all of the weeds of Example 73))”. Further, in data set [7] (preemergence applications), the Tolerance to soybeans result was “Tolerance (significant tolerance (as shown by 50% or less kill of the test crop at levels of application which give more than 50% kill of many or all of the weeds of Example 73))”.
`CCC(=O)Nc1cc(Oc2ccc(C(F)(F)F)cc2Cl)ccc1[N+](=O)[O-]` [Example 34]: the Tolerance to rice result in data set [1] (setting [10]) and in data set [1] (preemergence applications) was “Tolerance (significant tolerance (as shown by 50% or less kill of the test crop at levels of application which give more than 50% kill of many or all of the weeds of Example 73))” each time. Further, the Tolerance to peanuts result in [2] (postemergence applications) and in data set [2] (preemergence applications) was “Tolerance (significant tolerance (as shown by 50% or less kill of the test crop at levels of application which give more than 50% kill of many or all of the weeds of Example 73))” throughout. The Tolerance to corn entry in data set [3] (postemergence applications) and in data set [3] (preemergence applications) was “Tolerance (significant tolerance (as shown by 50% or less kill of the test crop at levels of application which give more than 50% kill of many or all of the weeds of Example 73))” in each case. In addition, the activity at 2241.7 g/ha was determined as 90% in data set [4], 47% in [6], 85% in [8] and 83% in data set [9]. Besides, the activity at 4483.4 g/ha in data set [4] came to 89%; in data set [6] it was 32%; in data set [8], 52%; in [9], 35%. Besides, the Tolerance to wheat entry in data set [5] (postemergence applications) and in [5] (preemergence applications) was “Tolerance (significant tolerance (as shown by 50% or less kill of the test crop at levels of application which give more than 50% kill of many or all of the weeds of Example 73))” throughout. Also, the Tolerance to soybeans result in data set [7] (postemergence or layby applications) and in data set [7] (preemergence applications) was “Tolerance (significant tolerance (as shown by 50% or less kill of the test crop at levels of application which give more than 50% kill of many or all of the weeds of Example 73))” in each case.
For `CSCCOc1cc(Oc2ccc(C(F)(F)F)cc2Cl)ccc1[N+](=O)[O-]` [Example 40], the Tolerance to rice entry in [1] (setting [10]) and in data set [1] (preemergence applications) was “Tolerance (significant tolerance (as shown by 50% or less kill of the test crop at levels of application which give more than 50% kill of many or all of the weeds of Example 73))” in each case. In addition, the Tolerance to peanuts entry in [2] (postemergence applications) and in [2] (preemergence applications) was “Tolerance (significant tolerance (as shown by 50% or less kill of the test crop at levels of application which give more than 50% kill of many or all of the weeds of Example 73))” in each case. The Tolerance to corn result in data set [3] (postemergence applications) and in data set [3] (preemergence applications) was “Tolerance (significant tolerance (as shown by 50% or less kill of the test crop at levels of application which give more than 50% kill of many or all of the weeds of Example 73))” each time. Moreover, the activity at 2241.7 g/ha in data set [4] came to 100%; in [6], 81%; in data set [8] it was 98%; in data set [9] it was 88%. Further, the activity at 4483.4 g/ha in [4] is 100%; in [6], 64%; in data set [8], 92%; in data set [9] it was 86%. For the same compound, the Tolerance to wheat entry in data set [5] (preemergence applications) is “Tolerance (significant tolerance (as shown by 50% or less kill of the test crop at levels of application which give more than 50% kill of many or all of the weeds of Example 73))”. For the same compound, the Tolerance to soybeans entry in data set [7] (preemergence applications) is “Tolerance (significant tolerance (as shown by 50% or less kill of the test crop at levels of application which give more than 50% kill of many or all of the weeds of Example 73))”.
